Reference: US7056275B2, “Radiotherapy” (Algeta A/S, priority 2000, dated 2006)
Like-named read-outs stand apart in the source and are kept apart here.

Tests used:
[1] = for Tissue distribution, Blood / Tissue distribution, Brain / Tissue distribution, Femur / Tissue distribution, Heart / Tissue distribution, Kidney / Tissue distribution, L.I. / Tissue distribution, Liver / Tissue distribution, Lung / Tissue distribution, Muscle / Tissue distribution, Rib / Tissue distribution, S.I. / Tissue distribution, Skull / Tissue distribution, Spleen / Tissue distribution, Stomach: +/- SD; for Femur/Blood ratio / Femur/Kidneys ratio / Femur/Liver ratio / Femur/Spleen ratio: Balb C mice; for femur to blood and femur to tissue ratios compared to cationic radium-223 (in words): chelates at 4 hours vs radium-223 at 6 hours after injection, for some organs
Procedure: The biodistribution of thorium and actinium bound to polyphosphonate was studied in mice.
Balb/C mice with a bodyweight in the range of 11–16 g were used in the biodistribution experiments. The compounds were administered by intravenous injection of 100–200 μl of the preparation for each animal in paired label arrangement. The compounds ^228Ac-DOTMP, ^227Th-DOTMP, ^227Th-DTMP and ^227Th-acetate/MES were investigated. Approximately 5 kBq of ^[…] and 5 kBq of ^228Ac was injected. Animals were sacrificed by cervical dislocation. The tissue distribution was determined on 3 mice for each pair of compounds. The tissue distribution was determined after 4 hours for ^228Ac-DOTMP, ^227Th-DOTMP, ^227Th-DTMP and ^227Th-acetate.
In general, radioactivity in the tissue samples was measured by using a NaI (Tl) well-type detector and by liquid scintillation counting (Beckmann LS6500, Beckmann, Fullerton, Calif., USA). ^227Th was measured by using a HPGe detector (Canberra, Conn, USA) and also by liquid scintillation counting after dissolution of tissue samples and allowing decay of ^228Ac. ^228Ac was measured by the HPGe detector and the NaI(Tl) detector.
Samples of the radioactive preparations of the nuclides were used as references to account for physical decay and radiation crossover in the detection procedures.

[2] = cationic species, mice, published data; cited from earlier work
[3] = 4 hours after injection, i.v., Balb/C mice
[4] = bone seeking chelates, 4 hours after injection
[5] = cationic radium-223, 6 hours after injection

SMILES	Tissue distribution, Blood [1, 3]	Tissue distribution, Brain [1, 3]	Tissue distribution, Femur [1, 3]	Tissue distribution, Heart [1, 3]	Tissue distribution, Kidney [1, 3]	Tissue distribution, L.I. [1, 3]	Tissue distribution, Liver [1, 3]	Tissue distribution, Lung [1, 3]	Tissue distribution, Muscle [1, 3]	Tissue distribution, Rib [1, 3]	Tissue distribution, S.I. [1, 3]	Tissue distribution, Skull [1, 3]	Tissue distribution, Spleen [1, 3]	Femur/Blood ratio [1, 4]	Femur/Kidneys ratio [1, 4]	Femur/Liver ratio [1, 4]	Femur/Spleen ratio [1, 4]	femur to blood and femur to tissue ratios compared to cationic radium-223 (in words) [1]	Tissue distribution, Stomach [1, 3]	further results
O=P([O-])(O)CN1CCN(CP(=O)([O-])O)CCN(CP(=O)(O)O)CCN(CP(=O)([O-])O)CC1.[228Ac+3] [Ac-228 DOTMP]	<0.1 % I.D./g	<0.1 % I.D./g	20.67 ± 2.23 % I.D./g	<0.1 % I.D./g	2.7 ± 2.4 % I.D./g	0.20 ± 0.11 % I.D./g	1.26 ± 0.9 % I.D./g	0.20 ± 0.10 % I.D./g	0.30 ± 0.11 % I.D./g	10.5 ± 3.5 % I.D./g	0.14 ± 0.07 % I.D./g	10.7 ± 2.7 % I.D./g	0.51 ± 0.10 % I.D./g	>196	7.7	16.4	41.3	better		
O=P([O-])(O)CN1CCN(CP(=O)([O-])O)CCN(CP(=O)([O-])O)CCN(CP(=O)([O-])O)CC1.[227Th+4] [Th-227 DOTMP]	<0.1 % I.D./g	<0.1 % I.D./g	20.55 ± 2.21 % I.D./g	<0.1 % I.D./g	3.43 ± 1.70 % I.D./g	0.19 ± 0.10 % I.D./g	0.39 ± 0.19 % I.D./g	0.18 ± 0.09 % I.D./g	0.29 ± 0.17 % I.D./g	11.06 ± 3.81 % I.D./g	0.14 ± 0.08 % I.D./g	10.8 ± 2.94 % I.D./g	0.51 ± 0.14 % I.D./g	>196	6.0	52.7	40.3	better	0.15 ± 0.05 % I.D./g	Tissue distribution, Urine ([1]; 4 hours after injection, i.v., Balb/C mice, n = 1): 21.1 % I.D./g
O=P([O-])(O)CN(CCN(CP(=O)([O-])O)CP(=O)([O-])O)CCN(CP(=O)([O-])O)CP(=O)(O)O.[227Th+4] [Th-227 DTMP]	<0.1 % I.D./g	<0.1 % I.D./g	19.58 ± 3.58 % I.D./g	<0.1 % I.D./g	1.38 ± 0.54 % I.D./g	0.15 ± 0.03 % I.D./g	0.40 ± 0.43 % I.D./g	0.12 ± 0.04 % I.D./g	0.63 ± 0.33 % I.D./g	8.83 ± 5.06 % I.D./g	0.56 ± 0.63 % I.D./g	12.3 ± 3.14 % I.D./g	0.13 ± 0.04 % I.D./g	>196	14.2	49	151	better	0.70 ± 0.80 % I.D./g	
[223Ra] [^223Ra, reference compound]																				Femur/Blood ratio [1, 5]: 129; Femur/Kidneys ratio [1, 5]: 6.4; Femur/Liver ratio [1, 5]: 29.1; Femur/Spleen ratio [1, 5]: 6.4
CC(=O)[O-].CC(=O)[O-].CC(=O)[O-].CC(=O)[O-].[227Th+4] [^227Th-acetate, reference compound]	1.2 ± 0.4 % I.D./g	<0.1 % I.D./g	23.4 ± 6.9 % I.D./g	2.6 ± 0.2 % I.D./g	7.7 ± 0.7 % I.D./g	1.7 ± 0.1 % I.D./g	56.5 ± 9.4 % I.D./g	2.6 ± 0.4 % I.D./g	1.1 % I.D./g	14.6 ± 4.4 % I.D./g	2.3 ± 0.1 % I.D./g	18.9 ± 7.6 % I.D./g	14.2 ± 2.8 % I.D./g						4.6 ± 1.0 % I.D./g	bone uptake (in words) ([1]; 4 hours after injection, mice): high and similar to the observed values with the bone-seeking polyphosphonate complexing agents; suitability for in vivo bone targeting given affinity for soft tissues, e.g. liver and spleen (in words) ([1]; 4 hours after injection, mice): unsuitable for in vivo bone targeting
CC(=O)[O-].CC(=O)[O-].CC(=O)[O-].[Ac+3] [cationic actinium]																				selective bone uptake relative to soft tissue uptake (in words) [2]: does not show sufficient selective bone uptake relative to soft tissue uptake
